These are literature values, as cited in patent publication US6353019B1, “Macrocyclic lactones, compositions, and methods of use” (United States of America as represented by the Department …, priority 1997, dated 2002).

For this series the following is noted: reported by Suzumure et al., Tetrahedron Lett. 1997; cited from earlier work.

For lobatamide A, the antifungal activity result is listed as “weak antifungal activity”.
